In article PMC3961306, “Comparison of the Cancer Gene Targeting and Biochemical Selectivities of All Targeted Kinase Inhibitors Approved for Clinical Use” (PLoS ONE, 2014):

Tests used:
Assay in all cases: Kinase profiling in a biochemical assay panel (mobility shift assays and ELISA), %-inhibition at 1 μM; selectivity entropy
[1] = molecular target: T1, panel of more than 300 wild-type and mutant kinases (313 kinase panel) (Homo sapiens, UniProt Q02156)
T1 sequence (Q02156 1-737): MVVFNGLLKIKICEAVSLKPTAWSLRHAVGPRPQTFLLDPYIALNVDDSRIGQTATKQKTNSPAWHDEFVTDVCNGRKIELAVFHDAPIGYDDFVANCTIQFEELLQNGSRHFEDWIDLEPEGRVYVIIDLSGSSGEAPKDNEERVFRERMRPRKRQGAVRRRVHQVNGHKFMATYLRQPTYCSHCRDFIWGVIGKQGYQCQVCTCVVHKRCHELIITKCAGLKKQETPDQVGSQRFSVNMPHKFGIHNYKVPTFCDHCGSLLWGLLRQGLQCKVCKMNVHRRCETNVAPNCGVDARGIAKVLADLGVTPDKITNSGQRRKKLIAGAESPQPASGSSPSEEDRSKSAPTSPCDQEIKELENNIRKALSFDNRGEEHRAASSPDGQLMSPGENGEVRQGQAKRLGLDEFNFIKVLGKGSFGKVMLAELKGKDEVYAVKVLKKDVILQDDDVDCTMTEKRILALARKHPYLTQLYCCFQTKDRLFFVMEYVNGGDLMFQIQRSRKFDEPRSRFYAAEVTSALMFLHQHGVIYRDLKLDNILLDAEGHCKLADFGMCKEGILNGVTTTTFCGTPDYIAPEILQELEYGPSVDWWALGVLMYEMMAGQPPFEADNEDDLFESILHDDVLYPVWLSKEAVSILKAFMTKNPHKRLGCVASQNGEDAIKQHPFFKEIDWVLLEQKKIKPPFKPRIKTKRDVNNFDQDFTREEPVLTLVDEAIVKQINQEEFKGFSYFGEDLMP

[2] = molecular target: T2, panel of more than 300 wild-type and mutant kinases (313 kinase panel) (Homo sapiens, UniProt Q08881)
T2 sequence (Q08881 1-620): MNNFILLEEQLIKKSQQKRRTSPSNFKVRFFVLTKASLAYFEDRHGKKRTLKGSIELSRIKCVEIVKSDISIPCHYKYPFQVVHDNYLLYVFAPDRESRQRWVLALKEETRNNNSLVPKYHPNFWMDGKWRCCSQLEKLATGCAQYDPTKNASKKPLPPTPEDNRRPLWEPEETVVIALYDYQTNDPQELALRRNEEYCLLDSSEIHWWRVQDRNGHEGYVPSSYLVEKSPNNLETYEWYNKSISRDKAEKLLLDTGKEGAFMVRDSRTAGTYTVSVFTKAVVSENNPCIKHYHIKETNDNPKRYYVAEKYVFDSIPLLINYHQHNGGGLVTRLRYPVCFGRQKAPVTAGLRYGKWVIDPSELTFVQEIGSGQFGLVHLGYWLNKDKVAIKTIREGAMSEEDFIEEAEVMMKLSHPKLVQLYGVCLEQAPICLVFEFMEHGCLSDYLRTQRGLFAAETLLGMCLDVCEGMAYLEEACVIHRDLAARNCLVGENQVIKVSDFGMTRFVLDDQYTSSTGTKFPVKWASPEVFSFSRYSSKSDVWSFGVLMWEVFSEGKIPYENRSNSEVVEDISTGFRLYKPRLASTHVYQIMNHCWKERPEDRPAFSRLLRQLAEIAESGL

[3] = molecular target: T3, panel of more than 300 wild-type and mutant kinases (313 kinase panel) (Homo sapiens, UniProt P53778)
T3 sequence (P53778 1-367): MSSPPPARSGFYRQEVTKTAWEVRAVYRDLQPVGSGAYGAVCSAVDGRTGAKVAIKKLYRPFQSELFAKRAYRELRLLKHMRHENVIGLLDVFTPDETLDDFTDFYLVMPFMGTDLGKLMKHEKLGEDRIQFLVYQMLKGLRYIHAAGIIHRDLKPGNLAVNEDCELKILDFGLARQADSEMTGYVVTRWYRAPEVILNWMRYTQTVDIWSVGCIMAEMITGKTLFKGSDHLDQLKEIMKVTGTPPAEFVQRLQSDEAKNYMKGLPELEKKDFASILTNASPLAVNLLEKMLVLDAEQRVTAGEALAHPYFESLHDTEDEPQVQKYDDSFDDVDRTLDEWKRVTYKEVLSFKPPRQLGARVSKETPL

[4] = molecular target: panel of more than 300 wild-type and mutant kinases (313 kinase panel) (Homo sapiens, UniProt Q14680)

SMILES	%-inhibition of PKCε ([1]; kinase PKCε, 1 μM) [%]	%-inhibition of ITK ([2]; kinase ITK, compound at 1 μM) [%]	%-inhibition of p38γ ([3]; kinase p38γ, 1 μM) [%]	%-inhibition of MELK ([4]; kinase MELK, compound at 1 μM) [%]	%-inhibition of PKCε ([1]; 1 µM) [%]	%-inhibition of ITK ([2]; 1 µM) [%]	%-inhibition of p38γ ([3]; 1 µM) [%]	%-inhibition of MELK ([4]; 1 µM) [%]
Cc1ccc(C(=O)Nc2ccc(CN3CCN(C)CC3)c(C(F)(F)F)c2)cc1C#Cc1cnc2cccnn12 [ponatinib]	12	86	86	–	–	–	–	–
CC(C)(C)c1nc(-c2cccc(NS(=O)(=O)c3c(F)cccc3F)c2F)c(-c2ccnc(N)n2)s1 [dabrafenib]	5	49	0.311	82	–	–	–	–
COc1cc(Nc2c(C#N)cnc3cc(OCCCN4CCN(C)CC4)c(OC)cc23)c(Cl)cc1Cl [bosutinib]	-0.711	13	-6	–	–	–	–	–
CO[C@H]1C[C@@H]2CC[C@@H](C)[C@@](O)(O2)C(=O)C(=O)N2CCCC[C@H]2C(=O)O[C@H]([C@H](C)C[C@@H]2CC[C@@H](OC(=O)C(C)(CO)CO)[C@H](OC)C2)CC(=O)[C@H](C)/C=C(\C)[C@@H](O)[C@@H](OC)C(=O)[C@H](C)C[C@H](C)/C=C/C=C/C=C/1C [temsirolimus]	4.32	-1.7	-5.48	-1.66	–	–	–	–
C#Cc1cccc(Nc2ncnc3cc(OCCOC)c(OCCOC)cc23)c1 [erlotinib]	–	–	–	–	0.598	6.51	4.5	2.69
CCCS(=O)(=O)Nc1ccc(F)c(C(=O)c2c[nH]c3ncc(-c4ccc(Cl)cc4)cc23)c1F [vemurafenib]	-8	3	-0.299	4	–	–	–	–
N#CC[C@H](C1CCCC1)n1cc(-c2ncnc3[nH]ccc23)cn1 [ruxolitinib]	-2.79	30	-2.39	34	–	–	–	–
CC(=O)Nc1cccc(-n2c(=O)n(C3CC3)c(=O)c3c(Nc4ccc(I)cc4F)n(C)c(=O)c(C)c32)c1 [trametinib]	6	-7.56	0.684	-0.588	–	–	–	–
COc1cc2c(Nc3ccc(Br)cc3F)ncnc2cc1OCC1CCN(C)CC1 [vandetanib]	-4	20	-3.79	1.19	–	–	–	–
CS(=O)(=O)CCNCc1ccc(-c2ccc3ncnc(Nc4ccc(OCc5cccc(F)c5)c(Cl)c4)c3c2)o1 [lapatinib]	–	-1.89	-1.19	-3.71	–	–	–	–
CO[C@H]1C[C@@H]2CC[C@@H](C)[C@@](O)(O2)C(=O)C(=O)N2CCCC[C@H]2C(=O)O[C@H]([C@H](C)C[C@@H]2CC[C@@H](OCCO)[C@H](OC)C2)CC(=O)[C@H](C)/C=C(\C)[C@@H](O)[C@@H](OC)C(=O)[C@H](C)C[C@H](C)/C=C/C=C/C=C/1C [everolimus]	-2.79	-3.61	-7	-3.33	–	–	–	–
CCN(CC)CCNC(=O)c1c(C)[nH]c(/C=C2\C(=O)Nc3ccc(F)cc32)c1C [sunitinib]	–	–	–	95	–	–	–	–
CNC(=O)c1cc(Oc2ccc(NC(=O)Nc3ccc(Cl)c(C(F)(F)F)c3)c(F)c2)ccn1 [regorafenib]	-8	2.43	16	-4.52	–	–	–	–
O=S(=O)(c1cccc2cnccc12)N1CCCNCC1 [fasudil]	-43	-9	1.68	25	–	–	–	–
C[C@@H](Oc1cc(-c2cnn(C3CCNCC3)c2)cnc1N)c1c(Cl)ccc(F)c1Cl [crizotinib]	-7	63	–	5.47	–	–	–	–
Cc1cn(-c2cc(NC(=O)c3ccc(C)c(Nc4nccc(-c5cccnc5)n4)c3)cc(C(F)(F)F)c2)cn1 [nilotinib]	-0.567	-0.451	-15	–	–	–	–	23
Cc1ccc(Nc2nccc(N(C)c3ccc4c(C)n(C)nc4c3)n2)cc1S(N)(=O)=O [pazopanib]	-5.38	28	-5	-0.665	–	–	–	–
COc1cc2nccc(Oc3ccc(NC(=O)C4(C(=O)Nc5ccc(F)cc5)CC4)cc3)c2cc1OC [cabozantinib]	3	16	23	54	–	–	–	–
